Assay results taken from patent publication US10058587B2, “Peptide composition for cancer treatment by inhibiting TRPV6 calcium channel activity” (priority 2008, dated 2018).
Where no end group is shown, it is not given here.

Legend:
[1] = tested on: MDA-MB-231 (MB 231) breast cancer cell line; assay: Induction of apoptosis (APO-ONE caspase 3/7) and cell viability (CellTiter Blue); type: cell-based, human; parameters: key to Decline in cell viability: decreased (+); or not (−)
Protocol: (§1) MCF-7, MDA-MB-231, MDA-MB-415, MDA-MB-468 were grown in DMEM modified with 10% (v/v) fetal bovine serum, 2 mM L-glutamine and 50 ug/mL each of penicillin and streptomycin.
(§2) The levels of apoptotic induction and cell viability were determined by multiplexing the measurements for single samples. CellTiter Blue and APO-ONE assay systems from Promega allows the determination of cell viability correlated to cell number, and induction of apoptosis. This protocol uses a fluorgenic peptide that contains a peptide recognition-sequence for caspase 3 and caspase 7, […] proteolytic enzymes of the apoptosis cascade. The CellTiter Blue reagent was added to wells in a 96-well plate containing cells under test, immediately after addition of peptide solution or vehicle. About 5000 cells were plated into the wells the day before. At the chosen time (Day 1, Day 2 etc.) the fluorescence was measured at 590 nm (emission) after excitation at 560 nm. The caspase 3/7 activity was measured (485 nm Ex/527 nm Em) in the same wells after adding 120 uL of the Apo-ONE reagent, freeze fracturing at −80° C. for 1 hr, and incubating for 1 hr at room temperature.
(§3) For this work, the concentrations of SorC13 and SorC27 used were 0 uM, 1 uM, 10 uM and 100 uM. The experiments extended over a 5 to 7 day period. All measurements were done in quadruplicate with both a blank (no cells) and control (vehicle, no peptide) used to correct the test measurements. The time-response data, and the dose-response data were plotted as means±standard error of the mean. Any statistical comparisons were done with the Student's t-test or by ANOVA analysis over the dose course. The level of statistical significance was considered to be the 95% confidence interval (i.e., p≤0.05).

[2] = tested on: MDA-MB-415 (MB 415) breast cancer cell line; assay: as above; type: cell-based, human; parameters: key to Decline in cell viability: decreased (+); or not (−)
Protocol: as §1, §2, §3

EGKLSSNDTEGGLCKEFLHPSKVDLPR [SorC27]
Apoptosis Index (1 = no effect) ([1]; Day 3, SorC27 10 μM): 1.5 | Apoptosis Index (1 = no effect) ([1]; Day 3, SorC27 100 μM): 1.7 | Decline in cell viability ([1]; SorC27): + | Decline in cell viability ([2]; SorC27): + | Apoptosis Index (1 = no effect) ([2]; SorC27 10 μM): 1.3 | Apoptosis Index (1 = no effect) ([2]; SorC27 100 μM): 1.5
